The subject of the data set is participants with cocaine use disorder. Description: Experimental sessions: cardiovascular measures after cocaine sampling dose during maintenance. The note with it: cocaine 80 mg during topiramate (50 or 100 mg/day)+phentermine (0 mg/day) relative to cocaine 0 mg during 0+0 mg/day.

For the compound `COC(=O)[C@H]1[C@@H](OC(=O)c2ccccc2)C[C@@H]2CC[C@H]1N2C` [Cocaine, cocaine], the heart rate result is “significantly increased”.
